A short description of data set [1]: pH of supplemented tea before and after heating. The following applies: tea with 5.7 g per quart; for Initial pH: before heating. It counts as physicochemical. The procedure: Tea made from Lipton® instant tea mix was used as the basis for incorporation of samples. To prepare the tea, the following recipe was used: 2.69 g instant tea, 5.7 g GLCN or NAG (where applicable) then add water to one quart. Tea was prepared for sensory testing as follows:
Batch 2. Tea+glucosamine (pH 5-6) [GLCN from fungal biomass, see batch 2 Example 1]
Batch 3. Tea+NAG (pH 5-6) (N-Acetyl-D-glucosamine, Catalog # A-102-2, Ferro Pfanstiehl, Waukegan, Ill.)
Batch 4. Tea+glucosamine (pH 5-6) heated to 71° C. for 20 minutes
Batch 5. Tea+glucosamine heated (pH 5-6) to 90° C. for 20 seconds, flash cooled in ice water bath
Batch 6. Tea+glucosamine (pH 5-6) boiled on stove for 5 minutes, flash cooled in ice water bath
Batch 7. Tea+NAG (pH 5-6) heated to 71° C. for 20 minutes
Batch 8. Tea+NAG (pH 5-6) heated to 90° C. for 20 seconds, flash cooled in ice water bath
Batch 9. Tea+NAG (pH 5-6) boiled on stove for 5 minutes, flash cooled in ice water bath

Data set [2] can be described thus: Stability in simulated gastric fluid (SGF). It counts as in vitro ADME. As to conditions: 1 g in SGF with pepsin, pH about 1.2, 37° C., sampled at 0, 5, 15 and 60 minutes. The procedure: To test the availability of NAG in the stomach, a simulated stomach environment was constructed, and a known concentration of NAG was added to simulated gastric fluid (SGF) and maintained at conditions simulating the stomach. If NAG is degraded or derivatized in the stomach, the NAG concentration will decrease. If the concentration of NAG remains the same, it is likely that the NAG is available to the body.
SGF was prepared based on a 1995 United States Pharmacopoeia (USP) monograph. An artificial stomach environment was simulated according to generally accepted practice (see Consumers Union website, 101 Truman Ave., Yonkers, N.Y. 10703-1057). To prepare simulated gastric fluid, 2.0 g of NaCl and 3.2 g of pepsin were dissolved in 7.0 mL of hydrochloric acid (concentrated) and sufficient water to make a 1000 mL solution.
NAG samples were prepared as follows. […]
Before introduction of samples into the SGF, a sample of the SGF was analyzed as a blank, to determine the baseline. Upon addition of the NAG to the SGF, a sample was immediately analyzed to determine the concentration of NAG at time zero. After introduction of NAG into the SGF, samples were pulled and analyzed at 5 minutes, 15 minutes, and 60 minutes to provide a profile of NAG concentration in the simulated stomach, and analyzed for the concentration of NAG.

Data set [3] can be described thus: NAG recovery following heating, acid extraction method, HPLC. It is filed as physicochemical. The following applies: all foods and beverages of Table 14. The procedure:
Food samples were homogenized prior to analysis. Where possible, samples were frozen or dried and ground. Baked goods were crumbled and mixed to produce a homogeneous material. Suitable blanks (samples with no added NAG) of each food type were analyzed to assess interferences. Mass changes between unheated ingredient mixtures and baked final products were tracked to permit accurate recovery calculations.
A food or beverage sample as described in the preceding examples containing 5 to 20 mg of N-acetylglucosamine (NAG) was dispersed in 25 g of 0.1 N HCl in a 50-mL polypropylene centrifuge tube and capped tightly. The sample was mixed for 30 seconds using a vortex mixer, then placed in a water bath at 37° C. The sample was removed from the water bath at 15-minute intervals and mixed for 30 seconds on a vortex mixer and then returned to the water bath. This cycle was repeated until the sample had been in the water bath for one hour. After heating, the sample was mixed for 30 seconds on a vortex mixer, then centrifuged for 10 minutes to separate the liquid and solid phases. Fats, oils or lipids in the sample formed a third layer at the top of the tube. […]
NAG recovery was determined using high performance liquid chromatography (HPLC) using a combination of refractive index and UV (195 nm) detection. […]

The mark [4] stands for this setting: heated to 71° C. for 20 minutes.
Setting [5] is: heated to 90° C. for 20 seconds.

As for `Cl.N[C@H]1C(O)O[C@H](CO)[C@@H](O)[C@@H]1O` (stereo partly shown) [Fungal GLCN, glucosamine hydrochloride, reference compound], the “Initial pH” value in data set [1] was found to be 5.09. In addition, the pH after heating in data set [1] (boiled 5 minutes) turned out to be 4.87; in data set [1] (setting [4]) it was 5.13; in data set [1] (setting [5]) it was 5.00.

`CC(=O)N[C@H]1C(O)O[C@H](CO)[C@@H](O)[C@@H]1O` (stereo partly drawn) [NAG, N-Acetyl-D-glucosamine]: the “Loss of NAG in simulated gastric fluid” value in data set [2] is given as “no significant loss of NAG”. Further, the “Initial pH” value in data set [1] was determined as 5.46. Also, the pH after heating was found to be 5.22 in data set [1] (boiled 5 minutes), 5.40 in data set [1] (setting [4]) and 5.31 in data set [1] (setting [5]). Further, the “amount of NAG recovered following heating, range over Table 14 samples” value in data set [3] was 77%-100%.
